Assay results: the NIST ThermoML archive (doi:10.1016/j.fluid.2009.04.021)
± gives the expanded uncertainty stated by the source.

Details: 101.33 kPa, Liquid, Buoyancy - hydrostatic balance

CCCCn1cc[n+](C)c1.F[B-](F)(F)F [1-butyl-3-methylimidazolium tetrafluoroborate]
Details	mass density [kg/m3]
281.45 K	1213.36 ± 10
283.01 K	1212.07 ± 10
288.41 K	1207.87 ± 10
288.49 K	1207.91 ± 10
293.2 K	1204.14 ± 10
293.49 K	1204.59 ± 10
298.19 K	1200.74 ± 10
298.29 K	1200.69 ± 10
303.04 K	1197.96 ± 10
303.25 K	1196.93 ± 10
308.02 K	1192.73 ± 10
308.14 K	1193.22 ± 10
312.86 K	1190.14 ± 10
313.44 K	1190.35 ± 10
318.17 K	1187.07 ± 10
318.18 K	1185.49 ± 10
323.04 K	1183.15 ± 10
323.06 K	1184.13 ± 10
327.58 K	1180.59 ± 10
328.06 K	1179.55 ± 10
332.87 K	1175.86 ± 10
333.24 K	1177.1 ± 10
337.9 K	1173.42 ± 10
337.97 K	1172.99 ± 10
342.78 K	1169.84 ± 10
343.45 K	1170.2 ± 10
347.5 K	1166.66 ± 10
348.11 K	1166.78 ± 10
350.81 K	1165.3 ± 10
352.74 K	1163.68 ± 10

CCn1cc[n+](C)c1.F[B-](F)(F)F [1-ethyl-3-methylimidazolium tetrafluoroborate]
Details	mass density [kg/m3]
293.41 K	1287.17 ± 10
298.14 K	1283.2 ± 10
303.08 K	1279.88 ± 10
307.94 K	1275.06 ± 10
313 K	1271.88 ± 10
318.7 K	1267.21 ± 10
322.5 K	1265.05 ± 10
328.4 K	1260.59 ± 10
332.78 K	1257.46 ± 10
338.22 K	1254.07 ± 10
343.05 K	1251.15 ± 10
347.97 K	1247.07 ± 10
353.07 K	1243.6 ± 10

CCCCCCn1cc[n+](C)c1.F[B-](F)(F)F [1-hexyl-3-methylimidazolium tetrafluoroborate]
Details	mass density [kg/m3]
283.61 K	1166.71 ± 10
288.57 K	1163.12 ± 10
293.48 K	1159.99 ± 10
298.22 K	1156.57 ± 10
303.11 K	1152.91 ± 10
308.16 K	1149.26 ± 10
313.25 K	1146.23 ± 10
318.33 K	1142.64 ± 10
323 K	1139.57 ± 10
328.63 K	1135.72 ± 10
333.69 K	1132.53 ± 10
338.15 K	1129.41 ± 10
343.04 K	1126.12 ± 10
348.26 K	1122.71 ± 10
352.72 K	1119.68 ± 10
